Read-outs that look alike come from different tables or passages of the source.
Legend:
SHV-12 = SHV-12 (Klebsiella pneumoniae, UniProt P0AD64, E235K/G234S/L31Q); assay: Inhibition of nitrocefin cleavage by purified SHV-12; format: biochemical; conditions: nitrocefin reporter substrate, purified enzyme; read-out: Ki (SHV-12, NCF)
Procedure: (§1) Purified enzymes were mixed with various concentrations of inhibitors in reaction buffer and incubated for 10 min at room temperature. Nitrocefin was added and substrate cleavage profiles were recorded at 490 nm every 10 sec for 10 min.

KP1004 (K-2) = assay: Potentiation of aztreonam, strain KP1004; format: cell-based; conditions: for AZT MPC4 K-2 KP1004: minimum BLI concentration inhibiting growth with 4 μg/mL aztreonam
EC1010 (CMY-6) [1] = format: cell-based
KPC-2 = KPC-2 (Klebsiella pneumoniae, UniProt Q9F663); assay: Inhibition of nitrocefin cleavage by purified KPC-2; format: biochemical; conditions: nitrocefin reporter substrate, purified enzyme; read-out: Ki (KPC-2, NCF)
Procedure: as §1

ec308 (SHV-5) [2] = assay: Potentiation of aztreonam, strain ec308; format: cell-based; conditions: for AZT MPC4 SHV-5 ec308: minimum BLI concentration inhibiting growth with 4 μg/mL aztreonam
KP1009 (CTX-M-15) [3] = assay: Potentiation of tigemonam, strain KP1009; conditions: minimum BLI concentration inhibiting growth with 4 μg/mL tigemonam
ec308 (SHV-5) [4] = assay: Potentiation of tigemonam, strain ec308; format: cell-based; conditions: minimum BLI concentration inhibiting growth with 4 μg/mL tigemonam
ec302 (TEM-10) [5] = assay: Potentiation of tigemonam, strain ec302; format: cell-based
ec302 (TEM-10) [6] = assay: Potentiation of aztreonam, strain ec302; format: cell-based
ECL1002 = assay: Potentiation of aztreonam, strain ECL1002; format: cell-based; conditions: minimum BLI concentration inhibiting growth with 4 μg/mL aztreonam
KP1009 (CTX-M-15) [7] = assay: Potentiation of aztreonam, strain KP1009; format: cell-based
KP1005 (CTX-M-14) = assay: Potentiation of aztreonam, strain KP1005; format: cell-based
PAM1032/KPC-2 = assay: Biapenem potentiation in PAM1032/KPC-2 (MexAB-OprM overexpressed); format: cell-based, Pseudomonas aeruginosa; conditions: BLI potency to decrease biapenem MIC 64-fold, 32 to 0.5 μg/ml; efflux proficient strain
Procedure: (§2) Efflux of BLIs from Pseudomonas aeruginosa by the MexAB-OprM efflux pump was also evaluated. […] Due to expression of KPC-2 both strains became resistant to biapenem. […] Potency of BLIs to potentiate biapenem in these strains was determined. […] The ratio of MPC64 values for each BLI in PAM1032/KPC-2 (efflux proficient) and PAM1154/KPC-2 (efflux deficient) was determined to generate the Efflux Index (EI).

PAM1154/KPC-2 = assay: Biapenem potentiation in PAM1154/KPC-2 (MexAB-OprM lacking); format: cell-based, Pseudomonas aeruginosa
Procedure: as §2

EC1010 (CMY-6) [8] = assay: Potentiation of aztreonam, strain EC1010; format: cell-based

Chain of SHV-12 (P0AD64 22-286 L31Q/G234S/E235K): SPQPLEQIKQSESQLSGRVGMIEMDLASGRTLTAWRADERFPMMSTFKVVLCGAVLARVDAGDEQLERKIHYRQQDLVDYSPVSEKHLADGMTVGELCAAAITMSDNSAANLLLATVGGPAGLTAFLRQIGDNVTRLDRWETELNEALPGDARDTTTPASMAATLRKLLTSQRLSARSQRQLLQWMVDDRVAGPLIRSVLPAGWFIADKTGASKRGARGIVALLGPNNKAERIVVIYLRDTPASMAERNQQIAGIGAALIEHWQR
Chain of KPC-2 (Q9F663 25-293, looked up, species assumed): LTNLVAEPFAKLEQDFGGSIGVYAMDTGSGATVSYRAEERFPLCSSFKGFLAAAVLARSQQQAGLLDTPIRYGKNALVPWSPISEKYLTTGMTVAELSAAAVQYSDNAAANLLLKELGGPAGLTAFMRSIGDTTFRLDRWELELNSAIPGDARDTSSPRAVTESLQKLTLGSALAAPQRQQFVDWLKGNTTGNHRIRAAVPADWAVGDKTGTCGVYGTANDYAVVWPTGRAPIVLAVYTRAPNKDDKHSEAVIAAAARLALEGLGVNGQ

Compound | Ki (SHV-12) [nM] | AZT MPC4 K-2 KP1004 (KP1004 (K-2)) | TIG MPC4 CMY-6 EC1010 (EC1010 (CMY-6) [1]) | Ki (KPC-2) [nM] | AZT MPC4 SHV-5 ec308 (ec308 (SHV-5) [2]) | TIG MPC4 CTX-M-15 KP1009 (KP1009 (CTX-M-15) [3]) | TIG MPC4 SHV-5 ec308 (ec308 (SHV-5) [4]) | AZT MPC4 TEM-10 ec302 (ec302 (TEM-10) [6]) | AZT MPC4 ECL1002 (ECL1002) | AZT MPC4 CTX-M-15 KP1009 (KP1009 (CTX-M-15) [7]) | AZT MPC4 CTX-M-14 KP1005 (KP1005 (CTX-M-14)) | PAM1032/KPC-2 Biapenem MPC64 (PAM1032/KPC-2) | AZT MPC4 CMY-6 EC1010 (EC1010 (CMY-6) [8]) | further results
CN(C)C(=O)CC(=O)N[C@H]1Cc2cccc(C(=O)O)c2OB1O [Compound 10, (R)-3-(3-(dimethylamino)-3-oxopropanamido)-2-hydroxy-3,4-dihydro-2H-benzo[e][1,2]oxaborinine-8-carboxylic acid] | < 1 | X (X = MIC of less than 1 μg/mL) | X (key: X = MIC of less than 1 μg/mL; Y = MIC of 1 μg/mL to 10 μg/mL; Z = MIC of greater than 10 μg/mL) | > 10 | Y (Y = MIC of 1 μg/mL to 10 μg/mL) | X (X = MIC of less than 1 μg/mL) | Y (Y = MIC of 1 μg/mL to 10 μg/mL) | Y (key: X = MIC of less than 1 μg/mL; Y = MIC of 1 μg/mL to 10 μg/mL; Z = MIC of greater than 10 μg/mL) | Y (Y = MIC of 1 μg/mL to 10 μg/mL) | X (key: X = MIC of less than 1 μg/mL; Y = MIC of 1 μg/mL to 10 μg/mL; Z = MIC of greater than 10 μg/mL) | Y (key: X = MIC of less than 1 μg/mL; Y = MIC of 1 μg/mL to 10 μg/mL; Z = MIC of greater than 10 μg/mL) | Z (Z Greater than 40) | X (key: X = MIC of less than 1 μg/mL; Y = MIC of 1 μg/mL to 10 μg/mL; Z = MIC of greater than 10 μg/mL) | TIG MPC4 TEM-10 ec302 (ec302 (TEM-10) [5]; minimum BLI concentration inhibiting growth with 4 μg/mL tigemonam): Z (Z = MIC of greater than 10 μg/mL); PAM11154/KPC-2 Biapenem MPC64 (PAM1154/KPC-2; BLI potency to decrease biapenem MIC 64-fold, 32 to 0.5 μg/ml, efflux deficient strain): Y (Y = 10 to 40)
O=C(N[C@H]1Cc2cccc(C(=O)O)c2OB1O)c1cncnc1 [Compound 18, (R)-2-hydroxy-3-(pyrimidine-5-carboxamido)-3,4-dihydro-2H-benzo[e][1,2]oxaborinine-8-carboxylic acid] | < 1 | Y (Y = MIC of 1 μg/mL to 10 μg/mL) | X (key: X = MIC of less than 1 μg/mL; Y = MIC of 1 μg/mL to 10 μg/mL; Z = MIC of greater than 10 μg/mL) | > 10 | Y (Y = MIC of 1 μg/mL to 10 μg/mL) | Y (Y = MIC of 1 μg/mL to 10 μg/mL) | Y (Y = MIC of 1 μg/mL to 10 μg/mL) | X (key: X = MIC of less than 1 μg/mL; Y = MIC of 1 μg/mL to 10 μg/mL; Z = MIC of greater than 10 μg/mL) | Y (Y = MIC of 1 μg/mL to 10 μg/mL) | Y (key: X = MIC of less than 1 μg/mL; Y = MIC of 1 μg/mL to 10 μg/mL; Z = MIC of greater than 10 μg/mL) | Y (key: X = MIC of less than 1 μg/mL; Y = MIC of 1 μg/mL to 10 μg/mL; Z = MIC of greater than 10 μg/mL) | Z (Z Greater than 40) | Y (key: X = MIC of less than 1 μg/mL; Y = MIC of 1 μg/mL to 10 μg/mL; Z = MIC of greater than 10 μg/mL) | TIG MPC4 TEM-10 ec302 (ec302 (TEM-10) [5]): Y (key: X = MIC of less than 1 μg/mL; Y = MIC of 1 μg/mL to 10 μg/mL; Z = MIC of greater than 10 μg/mL); PAM1154/KPC-2 Biapenem MPC64 (PAM1154/KPC-2): X (key: X = Less than 10; Y = 10 to 40; Z Greater than 40)
Nc1nnc(C(=O)N[C@H]2Cc3cccc(C(=O)O)c3OB2O)s1 [Compound 19, (R)-3-(5-amino-1,3,4-thiadiazole-2-carboxamido)-2-hydroxy-3,4-dihydro-2H-benzo[e][1,2]oxaborinine-8-carboxylic acid] | < 1 | Y (Y = MIC of 1 μg/mL to 10 μg/mL) | X (key: X = MIC of less than 1 μg/mL; Y = MIC of 1 μg/mL to 10 μg/mL; Z = MIC of greater than 10 μg/mL) | > 10 | X (X = MIC of less than 1 μg/mL) | Y (Y = MIC of 1 μg/mL to 10 μg/mL) | X (X = MIC of less than 1 μg/mL) | Y (key: X = MIC of less than 1 μg/mL; Y = MIC of 1 μg/mL to 10 μg/mL; Z = MIC of greater than 10 μg/mL) | Y (Y = MIC of 1 μg/mL to 10 μg/mL) | Y (key: X = MIC of less than 1 μg/mL; Y = MIC of 1 μg/mL to 10 μg/mL; Z = MIC of greater than 10 μg/mL) | Y (key: X = MIC of less than 1 μg/mL; Y = MIC of 1 μg/mL to 10 μg/mL; Z = MIC of greater than 10 μg/mL) | – | – | –
C[C@H]1[C@H](NC(=O)/C(=N\OC(C)(C)C(=O)O)c2csc(N)n2)C(=O)N1S(=O)(=O)O [Aztreonam, reference compound] | – | – | – | – | – | – | – | – | – | – | – | – | – | MIC (KP1004 (K-2); read-out: Aztreonam MIC): > 128 µg/mL; MIC (ec308 (SHV-5) [2]; read-out: Aztreonam MIC): > 128 µg/mL; MIC (ec302 (TEM-10) [6]; read-out: Aztreonam MIC): 128 µg/mL; MIC (KP1009 (CTX-M-15) [7]; read-out: Aztreonam MIC): > 128 µg/mL; MIC (KP1005 (CTX-M-14); read-out: Aztreonam MIC): > 128 µg/mL; MIC (EC1010 (CMY-6) [8]; read-out: Aztreonam MIC): > 128 µg/mL
